From patent US7858621B2 (Amorepacific Corporation, priority 2006, dated 2010)

Assays:
[1] = Metabolic stability test in rat liver microsomes; assay type: in vitro ADME; conditions: 5 μg/mL, 0.5 mg/mL protein, 30 min incubation
Description: (§1) 1) Metabolic Stability Test
(§2) Diluted sample (final 5 μg/mL in 0.1 M potassium phosphate buffer, pH 7.4) was pre-incubated with cofactors (glucose-6-phosphate 3.3 mM, NADPH 1.3 mM, MgCl2 0.16 mM, glucose-6-phosphate dehydrogenase 0.4 U/mL final) and enzyme reaction was initiated with the addition of human intestinal (1 mg/mL protein) or rat liver microsomes (0.5 mg/mL protein). Reaction was terminated with 2× volume of cold acetonitrile after 1 min (initial point) or 30 min (reacted sample) incubation. In case of human intestinal microsomes, 2 hr reaction time was employed. Reaction mixture was undergone extraction in shaking bath over 20 min, after which resultant supernatant was separated by centrifugation. Area of parent compound peak was analyzed in the supernatant using HPLC-UV method and the extent of metabolism was shown as the decreased compound peak area (%) from initial point.

vanilloid receptor = target: T1, vanilloid receptor (Rattus norvegicus, UniProt O35433); experiment: 45Ca influx test in cultured neonatal rat DRG neurons, inhibition of capsaicin response; assay type: cell-based; conditions: neonatal rat DRG neurons, capsaicin 0.5 μM, 45Ca influx; read-out: Antagonist Calcium Uptake Test (IC50)
T1 construct: DRG nerve cells from the primary culture of 2 days were equilibrated; endogenous in cells; host or cells: primary culture of dorsal root ganglion neurons from neonatal SD rats
T1 sequence (O35433 whole entry): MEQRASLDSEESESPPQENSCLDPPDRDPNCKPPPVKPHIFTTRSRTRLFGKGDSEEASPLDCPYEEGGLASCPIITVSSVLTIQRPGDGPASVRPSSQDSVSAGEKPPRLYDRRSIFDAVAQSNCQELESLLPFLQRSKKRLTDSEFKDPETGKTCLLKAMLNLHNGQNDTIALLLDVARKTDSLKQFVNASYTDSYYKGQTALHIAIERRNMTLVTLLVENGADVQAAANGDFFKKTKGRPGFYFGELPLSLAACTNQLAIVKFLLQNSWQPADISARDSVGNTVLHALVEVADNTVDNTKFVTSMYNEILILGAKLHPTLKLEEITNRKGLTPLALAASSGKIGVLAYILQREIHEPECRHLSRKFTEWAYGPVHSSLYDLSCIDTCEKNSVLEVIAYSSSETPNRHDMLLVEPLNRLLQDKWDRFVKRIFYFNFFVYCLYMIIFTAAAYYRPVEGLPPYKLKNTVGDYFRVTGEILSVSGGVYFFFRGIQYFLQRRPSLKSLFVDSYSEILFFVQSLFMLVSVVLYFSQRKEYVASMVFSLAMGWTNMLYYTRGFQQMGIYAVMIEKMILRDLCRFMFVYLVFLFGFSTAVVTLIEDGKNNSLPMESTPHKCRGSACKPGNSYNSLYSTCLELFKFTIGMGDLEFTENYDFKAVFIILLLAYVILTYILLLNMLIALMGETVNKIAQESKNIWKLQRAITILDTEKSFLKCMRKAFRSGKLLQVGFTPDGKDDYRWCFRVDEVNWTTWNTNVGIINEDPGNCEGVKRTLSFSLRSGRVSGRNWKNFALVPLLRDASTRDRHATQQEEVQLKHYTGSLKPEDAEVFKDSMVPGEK
Procedure, shortened: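 45Ca influx measured by scintillation counting of SDS-eluted neurons after 10 min at room temperature with test compound, 0.5 μM capsaicin (final) and 10 μCi/ml 45Ca in Ca/Mg-free HEPES-HBSS pH 7.4. Cells: primary DRG neurons from newborn SD rats, cultured 2 days with NGF and Ara-C.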

[2] = Metabolic stability test in human intestinal microsomes; assay type: in vitro ADME; conditions: 5 μg/mL, 1 mg/mL protein, 2 hr reaction time
Description: as §1, §2

[3] = PK study in rats, single oral administration; assay type: in vivo; parameters: AUC: concentration or dose not given beside the values; conditions: rat, plasma
Description: Pharmacokinetics of compounds in rats were analyzed using the following experiment. Rats were fasted overnight prior to administration and until approximately 4 hours after administration. Rats were given a single oral administration of compound at same dose. Administration volume was 10 ml/kg. Blood samples were collected from the retro-orbital sinus at various times over the following 7 hrs. Immediately after each collection, plasmas were separated from blood cells by centrifugation and stored at −20° C. until the analysis was performed. The plasma samples were analyzed using a reverse phase high-performance chromatography (HPLC) method.

SMILES | Stability RLM (% metabolized in rat liver microsomes) [1] [%] | IC50 (vanilloid receptor) [nM] | Stability HIM (% metabolized in human intestinal microsomes) [2] [%] | AUC [3] [ng·h/mL] | Cmax [3] [ng/mL] | Tmax [3] [h] | half-life [3] [h]
C#Cc1cc(CNC(=O)/C=C/c2ccc(C(F)(F)F)nc2N2CCOCC2)cc(F)c1NS(C)(=O)=O [Example 12, N-(3-Ethynyl-5-fluoro-4-methanesulfonylamino-benzyl)-3-(2-morpholin-4-yl-6-trifluoromethyl-pyridin-3-yl)-acrylamide] | 11.7 | 260 | 12.0 | 3240 | 723 | 2.38 | 1.7
C#Cc1cc(CNC(=O)/C=C/c2ccc(C(F)(F)F)nc2NC(C)C)cc(F)c1NS(C)(=O)=O [Example 100, N-(3-Ethynyl-5-fluoro-4-methanesulfonylamino-benzyl)-3-(2-isopropylamino-6-trifluoromethyl-pyridin-3-yl)-acrylamide] | 3.4 | 69 | 0 | 17400 | 2530 | 3 | 3.21
C=Cc1cc(CNC(=O)/C=C/c2ccc(C(F)(F)F)nc2N2CCOCC2)cc(F)c1NS(C)(=O)=O [Example 281, N-(3-Ethenyl-5-fluoro-4-methanesulfonylamino-benzyl)-3-(2-morpholin-1-yl-6-trifluoromethyl-pyridin-3-yl)-acrylamide] | 0.5 | 220 | 0 | 654 | 215 | 2 | 1.26
